# Counter-ions that a name gives are not always drawn.
# Legend:
# [1] = target: influenza virus neuraminidase (wild-type) (Influenza A virus, UniProt Q9IGQ6); format: biochemical
# [2] = tested on: influenza; settings: in vivo; cited from earlier work
# Chain of influenza virus neuraminidase (wild-type) (Q9IGQ6 whole entry, looked up): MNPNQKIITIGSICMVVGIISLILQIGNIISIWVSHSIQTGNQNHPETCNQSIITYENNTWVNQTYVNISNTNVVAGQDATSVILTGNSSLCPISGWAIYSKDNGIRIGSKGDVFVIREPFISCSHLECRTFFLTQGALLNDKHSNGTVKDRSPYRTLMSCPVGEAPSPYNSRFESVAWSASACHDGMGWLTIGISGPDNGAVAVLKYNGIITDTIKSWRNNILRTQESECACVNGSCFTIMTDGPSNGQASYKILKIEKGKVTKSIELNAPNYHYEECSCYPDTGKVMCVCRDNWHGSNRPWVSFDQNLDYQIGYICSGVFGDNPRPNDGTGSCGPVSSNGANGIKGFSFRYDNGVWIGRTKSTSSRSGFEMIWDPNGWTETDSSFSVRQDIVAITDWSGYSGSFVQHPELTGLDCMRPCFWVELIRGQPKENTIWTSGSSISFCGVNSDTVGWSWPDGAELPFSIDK
SMILES,inhibiting activity on wild-type virus strains [1],reduction of severity level of influenza symptoms [2],shortening of the state of illness [2]
"COCCO[C@@H]1CCCN([C@@H]2C=C(C(=O)O)C[C@H](N)[C@H]2NC(C)=O)C1 [Example 1, (3R,4R,5S)-4-acetamido-5-amino-3-((3S)-3-(2-methoxylethoxyl)piperidin)-1-cyclohexene-1-carboxylic acid trifluoroacetate]",perfect inhibiting activities,,
"COCCO[C@@H]1CCCN([C@@H]2C=C(C(=O)O)C[C@H](NC(=N)N)[C@H]2NC(C)=O)C1 [Example 11, (3R,4R,5S)-4-acetamido-5-guanidino-3-((3S)-(2-methoxylethyoxyl)piperidin)-1-cyclohexene-1-carboxylic acid trifluoroacetate]",perfect inhibiting activities,,
"CCOC(=O)C1=C[C@@H](OC(CC)CC)[C@H](NC(C)=O)[C@@H](N)C1.O=P(O)(O)O [Oseltamivir phosphate, ethyl (3R,4R,5S)-4-acetamido-5-amino-3-(1-ethylpropoxyl)-1-cyclohexene-1-carboxylate phosphate]",,40%,3.1 days

# — patent US10919856B2 (priority 2016, dated 2021)
